Key:
[1] = target: T1, Muscarinic acetylcholine receptor M1 (Homo sapiens) (UniProt P11229); test: Intrinsic activity at human muscarinic M1 receptor expressed in CHO cells assessed as effect on acetylcholine-induced intracellular calcium level by FLIPR assay relative to acetylcholine; assay type: functional, cell-based
T1 sequence (whole entry): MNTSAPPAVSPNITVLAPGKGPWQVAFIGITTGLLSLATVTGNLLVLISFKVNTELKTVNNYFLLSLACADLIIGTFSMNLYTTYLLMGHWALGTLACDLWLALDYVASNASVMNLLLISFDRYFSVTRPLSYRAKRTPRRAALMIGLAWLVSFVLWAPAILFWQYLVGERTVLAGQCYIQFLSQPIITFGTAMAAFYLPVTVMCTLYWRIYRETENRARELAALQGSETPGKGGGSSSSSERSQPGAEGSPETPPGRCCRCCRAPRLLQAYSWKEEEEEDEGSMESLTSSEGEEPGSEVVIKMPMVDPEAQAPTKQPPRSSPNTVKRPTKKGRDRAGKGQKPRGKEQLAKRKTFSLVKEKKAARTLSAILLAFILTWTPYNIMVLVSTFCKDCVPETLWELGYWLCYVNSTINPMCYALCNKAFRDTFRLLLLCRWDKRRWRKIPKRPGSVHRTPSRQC

[2] = target: T2, Muscarinic acetylcholine receptor M1 (Homo sapiens, UniProt P11229); test: Agonist activity at human muscarinic M1 receptor expressed in CHO cells assessed as effect on acetylcholine-induced intracellular calcium level by FLIPR assay; assay type: functional, cell-based
T2 sequence (P11229 whole entry): T1 sequence (whole entry)

Question: How did the Intrinsic activity [1] turn out when `O=C(NCC1CCNCC1)c1ccccc1-c1ccc(Cl)c(Cl)c1` was run?
Answer: 59%

Question: What about the EC50 [2] of the same compound?
Answer: 0.0501 µM

Question: `O=C(NCC1CCNCC1)c1ccccc1-c1cccc(Cl)c1F` was tested. Which Intrinsic activity [1] did it give?
Answer: 66%

Question: And the EC50 [2]?
Answer: 1 µM

Question: Which EC50 [2] does the source give for `O=C(NCC1CCNCC1)c1ccccc1-c1ccccc1Cl` here?
Answer: > 10 µM

Question: How did the EC50 [2] turn out when `O=C(NCc1ccncc1)c1ccccc1-c1nc(Cl)cs1` was run?
Answer: > 10 µM

Question: What does the source list for `O=C(NCC1CCNCC1)c1ccccc1-c1cccc(Cl)c1Cl`?
Answer: Intrinsic activity [1]: 16%; EC50 [2]: > 10 µM

Question: `O=C(NCC1CCNCC1)c1ccccc1-c1cc(F)cc(Cl)c1` was tested. Which Intrinsic activity [1] did it give?
Answer: 17%

Question: What about the EC50 [2] of the same compound?
Answer: > 10 µM

Question: Which EC50 [2] does the source give for `CC(=O)c1cccc(-c2ccccc2C(=O)NCC2CCNCC2)c1` here?
Answer: > 10 µM

Question: With `COc1ccc(-c2ccccc2C(=O)NCC2CCNCC2)cc1` as the compound, how does the EC50 [2] read?
Answer: > 10 µM

Question: With `NS(=O)(=O)c1cccc(-c2ccccc2C(=O)NCC2CCNCC2)c1` as the compound, how does the EC50 [2] read?
Answer: > 10 µM

Question: How did the EC50 [2] turn out when `O=C(NCC1CCNCC1)c1ccccc1-c1cccc(C(F)(F)F)c1` was run?
Answer: > 10 µM

Question: Which Intrinsic activity [1] does the source give for `O=C(NCC1CCNCC1)c1ccccc1-c1ccc(F)c(Cl)c1` here?
Answer: 76%

Question: What about the EC50 [2] of the same compound?
Answer: 0.0251 µM

Question: How did the EC50 [2] turn out when `CC(=O)Nc1cccc(-c2ccccc2C(=O)NCC2CCNCC2)c1` was run?
Answer: > 10 µM

Question: Which Intrinsic activity [1] does the source give for `Cc1cc(Cl)cc(-c2ccccc2C(=O)NCC2CCNCC2)c1` here?
Answer: 52%

Question: What about the EC50 [2] of the same compound?
Answer: 1.58 µM

Question: How did the EC50 [2] turn out when `O=C(NCC1CCNCC1)c1ccccc1-c1cccnc1` was run?
Answer: > 10 µM

Question: With `O=C(NC[C@H]1C[C@H]2CC[C@@H](C1)N2)c1ccccc1-c1cccc(Cl)c1` as the compound, how does the EC50 [2] read?
Answer: > 10 µM

Question: For `Cc1cccc(-c2ccccc2C(=O)NCC2CCNCC2)c1`, which EC50 [2] is on record?
Answer: > 10 µM

Question: For `O=C(NCC1CCNCC1)c1ccccc1-c1ccc2ccccc2c1`, which EC50 [2] is on record?
Answer: > 10 µM

Question: With `O=C(NCC1CCNCC1)c1ccccc1-c1cc(Cl)cc(Cl)c1` as the compound, how does the Intrinsic activity [1] read?
Answer: 24%

Question: And the EC50 [2]?
Answer: > 10 µM

Question: For `O=C(NCC1CCNCC1)c1ccccc1-c1nccs1`, which EC50 [2] is on record?
Answer: > 10 µM

Question: With `O=C(NCC1CCNCC1)c1ccccc1-c1ccco1` as the compound, how does the EC50 [2] read?
Answer: > 10 µM

Question: `O=C(NCC1CCNCC1)c1ccccc1-c1ccc(F)cc1` was tested. Which EC50 [2] did it give?
Answer: > 10 µM

Question: With `O=C(NCC1CCNCC1)c1ccccc1-c1ccc(Cl)s1` as the compound, how does the EC50 [2] read?
Answer: > 10 µM

Question: `COc1cccc(-c2ccccc2C(=O)NCC2CCNCC2)c1` was tested. Which EC50 [2] did it give?
Answer: > 10 µM

Question: `O=C(NC1CCCNC1)c1ccccc1-c1nc(Cl)cs1` (stereo unspecified) was tested. Which EC50 [2] did it give?
Answer: > 10 µM

Question: With `O=C(NC1CCNCC1)c1ccccc1-c1nc(Cl)cs1` as the compound, how does the EC50 [2] read?
Answer: > 10 µM

Question: For `CC1(CNC(=O)c2ccccc2-c2cccc(Cl)c2)CCNCC1`, which Intrinsic activity [1] is on record?
Answer: 45%

Question: What about the EC50 [2] of the same compound?
Answer: > 10 µM

Question: Which Intrinsic activity [1] does the source give for `O=C(NCC1CCNCC1)c1ccccc1-c1cc(Cl)ccc1Cl` here?
Answer: 100%

Question: And the EC50 [2]?
Answer: 0.0398 µM

Question: With `O=C(NCC1CCOCC1)c1ccccc1-c1nc(Cl)cs1` as the compound, how does the EC50 [2] read?
Answer: > 10 µM

Question: With `CN1CCC(CNC(=O)c2ccccc2-c2cccc(Cl)c2)CC1` as the compound, how does the Intrinsic activity [1] read?
Answer: 16%

Question: And the EC50 [2]?
Answer: > 10 µM

Question: `CN(CC1CCNCC1)C(=O)c1ccccc1-c1cccc(Cl)c1` was tested. Which Intrinsic activity [1] did it give?
Answer: 2%

Question: What about the EC50 [2] of the same compound?
Answer: > 10 µM

Question: For `Cc1ccc(Cl)cc1-c1ccccc1C(=O)NCC1CCNCC1`, which Intrinsic activity [1] is on record?
Answer: 86%

Question: What about the EC50 [2] of the same compound?
Answer: 0.158 µM

Question: For `CN(C)c1cccc(-c2ccccc2C(=O)NCC2CCNCC2)c1`, which EC50 [2] is on record?
Answer: > 10 µM

Question: Which Intrinsic activity [1] does the source give for `CC(NC(=O)c1ccccc1-c1cccc(Cl)c1)C1CCNCC1` (stereo unspecified) here?
Answer: 26%

Question: What about the EC50 [2] of the same compound?
Answer: > 10 µM
